Assay results: US20100167396A1, “Application of Anti-Apoptotic Gene Expression in Mammalian Cells for Perfusion Culture” (BAYER HEALTHCARE LLC, priority 2006, published 2010)

Legend:
[1] = system: blank vector and parental BHK-FVIII cell lines; experiment: Thapsigargin-induced caspase-3 activation, control cell lines; type: cell-based, hamster; details: 24 hours after 2 μM thapsigargin treatment
Experimental: (§1) Cells were seeded at a density of 5×10^6 cells/mL in shake flasks and cultured in an incubator maintained at 37° C. and 5% CO2. The culture was examined every 24 hours for viability, caspase-3 activation, Annexin-V binding assay, and nutrient measurements. Cell count was performed by trypan blue exclusion assay using a Cedex cell counting device (Innovatis, Bielefeld, Germany). Caspase-3 activation was detected using a Guava PCA system (Guava Technologies, Hayward, Calif.). Cells were washed with cold PBS, fixed with Cytofix/Cytoperm solution (BD Pharmingen, San Diego, Calif.), and then stained with PE-conjugated monoclonal active caspase-3 antibody (BD Pharmingen) before analyzing with the Guava system. For the Annexin-V binding assay, cells were collected and incubated using a Guava Nexin kit and analyzed on the Guava PCA system according to manufacturer's instructions (Guava Technologies). Levels of glutamine, glutamate, glucose, and lactate were measured by the YSI analyzer (YSI Life Sciences, Yellow Springs, Ohio).
(§2) The engineered cell lines Aven-E1B-19K #22 and E1B-19K #6, in addition to the blank vector and the parental cell lines were treated with thapsigargin in shake flask culture. […] To examine apoptosis induction, caspase-3 activation was evaluated 24 hours after thapsigargin treatment.

[2] = system: E1B-19K #6 and Aven-E1B-19K #22 BHK-FVIII cell lines; experiment: Thapsigargin-induced caspase-3 activation, engineered cell lines; type: cell-based, hamster; details: 24 hours after 2 μM thapsigargin treatment, anti-apoptosis engineered cell lines
Experimental: as §1, §2

## C/C=C(/C)C(=O)O[C@H]1C(C)=C2[C@H]([C@@H]1OC(=O)CCCCCCC)[C@@](C)(OC(C)=O)C[C@H](OC(=O)CCC)[C@@]1(O)[C@H]2OC(=O)[C@@]1(C)O [thapsigargin]
[1]
  percentage of caspase-3 activated cells: Approximately 20%
[2]
  percentage of caspase-3 activated cells: less than 5%
